Test results from the NIST ThermoML archive (doi:10.1016/j.jct.2016.04.003).

Assay: xn = mol fraction of the nth substance listed
Conditions: for surface tension liquid-gas: Drop volume; for viscosity / speed of sound / mass density: 99 kPa, Liquid; for viscosity: Capillary tube (Ostwald / Ubbelohde) method; for speed of sound: Frequency=3 MHz, Sing-around technique in a fixed-path interferometer; for mass density: Vibrating tube method

CCC[n+]1ccccc1.F[B-](F)(F)F [1-propylpyridinium tetrafluoroborate] + O
Conditions	mass density [kg/m3]	speed of sound [m/s]	surface tension liquid-gas [mN/m]	viscosity [mPa·s]
313.15 K, x1 = 0.0185	1026	1559	–	–
313.15 K, x1 = 0.028	–	–	56	–
313.15 K, x1 = 0.0287	1041.1	1568.7	–	–
313.15 K, x1 = 0.0466	1063.1	1580.6	–	–
313.15 K, x1 = 0.0492	–	–	–	0.843
313.15 K, x1 = 0.0551	–	–	53.7	–
313.15 K, x1 = 0.0766	1091.4	1593	–	–
313.15 K, x1 = 0.0952	–	–	–	1.122
313.15 K, x1 = 0.0964	1105.8	1598.5	–	–
313.15 K, x1 = 0.1008	–	–	51.7	–
313.15 K, x1 = 0.1522	–	–	50.5	–
313.15 K, x1 = 0.1948	–	–	–	1.755
313.15 K, x1 = 0.1965	–	–	49.9	–
313.15 K, x1 = 0.2011	1154.3	1610.4	–	–
313.15 K, x1 = 0.2588	–	–	–	2.326
313.15 K, x1 = 0.2858	1176.6	1610.4	–	–
313.15 K, x1 = 0.2947	–	–	49.8	–
313.15 K, x1 = 0.3451	–	–	49.6	–
313.15 K, x1 = 0.3891	–	–	–	4.172
313.15 K, x1 = 0.3968	–	–	49.5	–
313.15 K, x1 = 0.3993	1196.3	1607.7	–	–
313.15 K, x1 = 0.4779	–	–	49.5	–
313.15 K, x1 = 0.4894	–	–	–	7.412
313.15 K, x1 = 0.4979	1208.2	1604.7	–	–
313.15 K, x1 = 0.5772	1215.5	1602.4	–	–
313.15 K, x1 = 0.5827	–	–	49.6	–
313.15 K, x1 = 0.5942	–	–	–	10.92
313.15 K, x1 = 0.6015	1217.5	1601.9	–	–
313.15 K, x1 = 0.6695	1222.5	1600.6	–	–
313.15 K, x1 = 0.6846	–	–	49.6	–
313.15 K, x1 = 0.6952	–	–	–	16.2
313.15 K, x1 = 0.7309	1226.5	1599.9	–	–
313.15 K, x1 = 0.7771	1229.4	1599.7	–	–
313.15 K, x1 = 0.7861	–	–	49.6	–
313.15 K, x1 = 0.7903	–	–	–	23.05
313.15 K, x1 = 0.8395	1232.9	1600.3	–	–
313.15 K, x1 = 0.8862	–	–	49.6	–
313.15 K, x1 = 0.8982	–	–	–	35.15
313.15 K, x1 = 0.9054	1236.7	1601.8	–	–
313.15 K, x1 = 0.9425	–	–	49.7	–
313.15 K, x1 = 0.943	–	–	–	43.35
313.15 K, x1 = 0.9633	1240.1	1604.2	–	–
313.15 K, x1 = 1	1242.4	1606.3	49.8	56.02
323.15 K, x1 = 0.0185	1020.8	1563.2	–	–
323.15 K, x1 = 0.028	–	–	54.5	–
323.15 K, x1 = 0.0287	1035.6	1569.4	–	–
323.15 K, x1 = 0.0466	1057	1576.8	–	–
323.15 K, x1 = 0.0492	–	–	–	0.714
323.15 K, x1 = 0.0551	–	–	52.2	–
323.15 K, x1 = 0.0766	1084.7	1583.8	–	–
323.15 K, x1 = 0.0952	–	–	–	0.889
323.15 K, x1 = 0.0964	1098.9	1586.7	–	–
323.15 K, x1 = 0.1008	–	–	50.4	–
323.15 K, x1 = 0.1522	–	–	49.2	–
323.15 K, x1 = 0.1948	–	–	–	1.379
323.15 K, x1 = 0.1965	–	–	48.6	–
323.15 K, x1 = 0.2011	1146.9	1591.5	–	–
323.15 K, x1 = 0.2588	–	–	–	1.808
323.15 K, x1 = 0.2858	1169.2	1589.7	–	–
323.15 K, x1 = 0.2947	–	–	48.7	–
323.15 K, x1 = 0.3451	–	–	48.6	–
323.15 K, x1 = 0.3891	–	–	–	3.105
323.15 K, x1 = 0.3968	–	–	48.5	–
323.15 K, x1 = 0.3993	1189	1586	–	–
323.15 K, x1 = 0.4779	–	–	48.5	–
323.15 K, x1 = 0.4894	–	–	–	5.345
323.15 K, x1 = 0.4979	1200.9	1582.6	–	–
323.15 K, x1 = 0.5772	1208.2	1580	–	–
323.15 K, x1 = 0.5827	–	–	48.7	–
323.15 K, x1 = 0.5942	–	–	–	8.242
323.15 K, x1 = 0.6015	1210.1	1579.4	–	–
323.15 K, x1 = 0.6695	1215.1	1577.7	–	–
323.15 K, x1 = 0.6846	–	–	48.7	–
323.15 K, x1 = 0.6952	–	–	–	12.05
323.15 K, x1 = 0.7309	1219.2	1576.7	–	–
323.15 K, x1 = 0.7771	1222.1	1576.2	–	–
323.15 K, x1 = 0.7861	–	–	48.8	–
323.15 K, x1 = 0.7903	–	–	–	15.97
323.15 K, x1 = 0.8395	1225.8	1576.6	–	–
323.15 K, x1 = 0.8862	–	–	48.9	–
323.15 K, x1 = 0.8982	–	–	–	23.99
323.15 K, x1 = 0.9054	1229.6	1578.1	–	–
323.15 K, x1 = 0.9425	–	–	48.9	–
323.15 K, x1 = 0.943	–	–	–	28.38
323.15 K, x1 = 0.9633	1233	1580.8	–	–
323.15 K, x1 = 1	1235.3	1583.3	49	36.99
